Assays:
Assay in all cases: Pharmacodynamics in Th17-stimulated human skin on Franz cell, qPCR
Type in all cases: cell-based
Details in all cases: control added to receptor solution at 40 hours and 16 hours prior to Th17 stimulation
IL1-beta = system: IL1-beta
Description: (§1) Example 5 describes results of a study on the pharmacodynamics of composition identified as formulation identification no. OO14. In this study, human skin placed on a static in vitro diffusion cell and a fixed amount of the formulation was applied to the skin. The formulation was applied to the skin at either 16 hours prior to or both 40 hours and 16 hours prior to Th17 stimulation. The receptor solution was replaced with the Th17 stimulation media was incubated for 24 hours prior to harvesting. […] As a control, 0.01% betamethasone (BMV) was added to the receptor solution at both 40 hours and 16 hours prior to Th17 stimulation.
(§2) Freshly excised human skin was dermatomed to 750 microns with the stratum corneum intact and placed on a static Franz cell employing ˜0.6 cm^2 of skin. 10 μL of a topical formulation OO14 containing 0.079% synthetic indirubin was applied to the skin at either 16 hours prior to stimulation or both 40 hours and 16 hours prior to Th17 stimulation. As a control, 0.01% betamethasone (BMV) was added to the receptor solution at both 40 hours and 16 hours prior to Th17 stimulation. The Th17 stimulation media contains a mixture of cytokines and antibodies shown to induce Th17 polarization and was made and added as described in the skin resident immune cell activation assay in Smith S. H. et al., PLoS ONE 11(2): e0147979. The skin was cultured for an additional 24 hours prior to harvesting for qPCR and staining for AhR activation.

S100A7 = system: S100A7
Description: as §1, §2

IL17-alpha = system: IL17-alpha
Description: as §1, §2

IL8 = system: IL8
Description: as §1, §2

For `C[C@H]1C[C@H]2[C@@H]3CCC4=CC(=O)C=C[C@]4(C)[C@@]3(F)[C@@H](O)C[C@]2(C)[C@@]1(O)C(=O)CO` [0.01% BMV, betamethasone], the “% Inhibition Compared to Th17, IL1-beta” value (IL1-beta) was 58.66%, the “% Inhibition Compared to Th17, S100A7” value (S100A7) was “N/I* (Not Inhibited compared to Th17)” and the “% Inhibition Compared to Th17, IL17-alpha” value (IL17-alpha) was 96.99%. For the same compound, the “% Inhibition Compared to Th17, IL8” value (IL8) was 14.01%.

Reference: patent US11154533B2, “Topical compositions and methods for treating inflammatory skin diseases” (Azora Therapeutics, Inc., priority 2019, dated 2021)
